Measured values as given in patent US11173137B2, “Compositions and methods to modulate chloride ion channel activity” (The Board of Trustees of the Leland Stanford Junior …, priority 2018, dated 2021).
Values joined by “and” are separate entries in the source; they are usually repeats but may differ in a detail not shown here. Equal values may be shown once. Read-outs that look alike come from different tables or passages of the source.

Experiments:
mGluR1 = mGluR1 (Homo sapiens (Human), UniProt Q13255); experiment: PDSP functional assay; type: biochemical; conditions: only a functional assay was performed
Experimental: (§1) Two exemplary compounds, FA44 and FA26, were screened against a panel of CNS receptors, transporters, and ion channels to examine specificity for CLC-2 in the brain. A comprehensive primary binding assay screen was performed through the NIH Psychoactive Drug Screening Program (PDSP) at UNC-Chapel Hill. Secondary or functional assays were performed for compounds showing >50% activity in the primary assay.

CLC-2 = CLC-2 (Homo sapiens (Human), UniProt P51788); experiment: IonWorks Barracuda automated patch-clamp electrophysiology, human CLC-2 cell line; type: cell-based; conditions: for times greater potency towards CLC-2 compared to CLC-1: CLC-2 versus CLC-1
Text: FIG. 8, panels A and B depict graphically the Selectivity between CLC-1 and CLC-2. […]

CLC-1 = CLC-1 (Homo sapiens (Human), UniProt P35523); experiment: IonWorks Barracuda automated patch-clamp electrophysiology, CLC-1; type: cell-based; conditions: for IC50: Table 2; for percent inhibition of CLC-1 at highest concentration tested (in parenthesis): at the concentration listed in the same cell
Experimental: If the IC50 was greater than the highest concentration tested, this concentration is listed along with the percent inhibition at this concentration (in parenthesis).
FIG. 8, panels A and B depict graphically the Selectivity between CLC-1 and CLC-2. […] Data points represent the mean current block at 16 different FA44 concentrations (n=4-8), using the IonWorks™ Barracuda. […] Panel B depicts a summary graph showing the mean inhibition of CLC-1 (left bar) or CLC-2 (right bar) current at 30 μM, illustrating the improvement in both selectivity and potency from the hit compound MCFA to the exemplary compound FA44.

5-HT3 = 5-HT3 (Homo sapiens (Human), UniProt P46098); experiment: PDSP primary binding assay; conditions: primary binding assay at 10 μM
Experimental: as §1

H3 = H3 (Homo sapiens (Human), UniProt Q9Y5N1); experiment: PDSP primary binding assay; conditions: primary binding assay at 10 μM
Experimental: as §1

5-HT7 = 5-HT7 (Homo sapiens (Human), UniProt P34969); experiment: PDSP primary binding assay; conditions: primary binding assay at 10 μM
Experimental: as §1

SERT = SERT (Homo sapiens (Human), UniProt P31645); experiment: PDSP primary binding assay; conditions: primary binding assay at 10 μM
Experimental: as §1

Alpha2C = Alpha2C (Homo sapiens (Human), UniProt P18825); experiment: PDSP primary binding assay; conditions: primary binding assay at 10 μM
Experimental: as §1

KOR = KOR (Homo sapiens (Human), UniProt P41145); experiment: PDSP primary binding assay; conditions: primary binding assay at 10 μM
Experimental: as §1

Sigma 2 = Sigma 2 (Homo sapiens (Human), UniProt Q5BJF2); experiment: PDSP primary binding assay; conditions: primary binding assay at 10 μM
Experimental: as §1

GABAA = experiment: PDSP primary binding assay; conditions: primary binding assay at 10 μM
Experimental: as §1

D2 = D2 (Homo sapiens (Human), UniProt P14416); experiment: PDSP primary binding assay; conditions: primary binding assay at 10 μM
Experimental: as §1

Alpha1D = Alpha1D (Homo sapiens (Human), UniProt P25100); experiment: PDSP primary binding assay; conditions: primary binding assay at 10 μM
Experimental: as §1

DAT = DAT (Homo sapiens (Human), UniProt Q01959); experiment: PDSP primary binding assay; conditions: primary binding assay at 10 μM
Experimental: as §1

D4 = D4 (Homo sapiens (Human), UniProt P21917); experiment: PDSP primary binding assay; conditions: primary binding assay at 10 μM
Experimental: as §1

H4 = H4 (Homo sapiens (Human), UniProt Q9H3N8); experiment: PDSP primary binding assay; conditions: primary binding assay at 10 μM
Experimental: as §1

Beta2 = Beta2 (Homo sapiens (Human), UniProt P07550); experiment: PDSP primary binding assay; conditions: primary binding assay at 10 μM
Experimental: as §1

D1 = D1 (Homo sapiens (Human), UniProt P21728); experiment: PDSP primary binding assay; conditions: primary binding assay at 10 μM
Experimental: as §1

Alpha1B = Alpha1B (Homo sapiens (Human), UniProt P35368); experiment: PDSP primary binding assay; conditions: primary binding assay at 10 μM
Experimental: as §1

DOR = DOR (Homo sapiens (Human), UniProt P41143); experiment: PDSP primary binding assay; conditions: primary binding assay at 10 μM
Experimental: as §1

5-HT1D = 5-HT1D (Homo sapiens (Human), UniProt P28221); experiment: PDSP primary binding assay; conditions: primary binding assay at 10 μM
Experimental: as §1

D5 = D5 (Homo sapiens (Human), UniProt P21918); experiment: PDSP primary binding assay; conditions: primary binding assay at 10 μM
Experimental: as §1

Alpha2B = Alpha2B (Homo sapiens (Human), UniProt P18089); experiment: PDSP primary binding assay; conditions: primary binding assay at 10 μM
Experimental: as §1

BZP rat brain site = experiment: PDSP primary binding assay; conditions: primary binding assay at 10 μM
Experimental: as §1

KA = experiment: PDSP primary binding assay; conditions: primary binding assay at 10 μM
Experimental: as §1

5-HT2B = 5-HT2B (Homo sapiens (Human), UniProt P41595); experiment: PDSP primary binding assay; conditions: primary binding assay at 10 μM
Experimental: as §1

5-HT2C = 5-HT2C (Homo sapiens (Human), UniProt P28335); experiment: PDSP primary binding assay; conditions: primary binding assay at 10 μM
Experimental: as §1

Calcium channel = experiment: PDSP primary binding assay; conditions: primary binding assay at 10 μM
Experimental: as §1

MOR = MOR (Homo sapiens (Human), UniProt P35372); experiment: PDSP primary binding assay; conditions: primary binding assay at 10 μM
Experimental: as §1

5-HT5A = 5-HT5A (Homo sapiens (Human), UniProt P47898); experiment: PDSP primary binding assay; conditions: primary binding assay at 10 μM
Experimental: as §1

5-HT1B = 5-HT1B (Homo sapiens (Human), UniProt P28222); experiment: PDSP primary binding assay; conditions: primary binding assay at 10 μM
Experimental: as §1

Alpha1A = Alpha1A (Homo sapiens (Human), UniProt P35348); experiment: PDSP primary binding assay; conditions: primary binding assay at 10 μM
Experimental: as §1

PBR = PBR (Homo sapiens (Human), UniProt P30536); experiment: PDSP primary binding assay; conditions: primary binding assay at 10 μM
Experimental: as §1

NMDA = experiment: PDSP primary binding assay; conditions: primary binding assay at 10 μM
Experimental: as §1

NET = NET (Homo sapiens (Human), UniProt P23975); experiment: PDSP primary binding assay; conditions: primary binding assay at 10 μM
Experimental: as §1

NOP = NOP (Homo sapiens (Human), UniProt P41146); experiment: PDSP primary binding assay; conditions: primary binding assay at 10 μM
Experimental: as §1

5-HT2A = 5-HT2A (Homo sapiens (Human), UniProt P28223); experiment: PDSP primary binding assay; conditions: primary binding assay at 10 μM
Experimental: as §1

[1] = n = 4 cells, four concentrations of each compound, IonWorks Barracuda, read-out: IC50 (μM) against CLC-2

Sequence of CLC-1 (P35523 whole entry): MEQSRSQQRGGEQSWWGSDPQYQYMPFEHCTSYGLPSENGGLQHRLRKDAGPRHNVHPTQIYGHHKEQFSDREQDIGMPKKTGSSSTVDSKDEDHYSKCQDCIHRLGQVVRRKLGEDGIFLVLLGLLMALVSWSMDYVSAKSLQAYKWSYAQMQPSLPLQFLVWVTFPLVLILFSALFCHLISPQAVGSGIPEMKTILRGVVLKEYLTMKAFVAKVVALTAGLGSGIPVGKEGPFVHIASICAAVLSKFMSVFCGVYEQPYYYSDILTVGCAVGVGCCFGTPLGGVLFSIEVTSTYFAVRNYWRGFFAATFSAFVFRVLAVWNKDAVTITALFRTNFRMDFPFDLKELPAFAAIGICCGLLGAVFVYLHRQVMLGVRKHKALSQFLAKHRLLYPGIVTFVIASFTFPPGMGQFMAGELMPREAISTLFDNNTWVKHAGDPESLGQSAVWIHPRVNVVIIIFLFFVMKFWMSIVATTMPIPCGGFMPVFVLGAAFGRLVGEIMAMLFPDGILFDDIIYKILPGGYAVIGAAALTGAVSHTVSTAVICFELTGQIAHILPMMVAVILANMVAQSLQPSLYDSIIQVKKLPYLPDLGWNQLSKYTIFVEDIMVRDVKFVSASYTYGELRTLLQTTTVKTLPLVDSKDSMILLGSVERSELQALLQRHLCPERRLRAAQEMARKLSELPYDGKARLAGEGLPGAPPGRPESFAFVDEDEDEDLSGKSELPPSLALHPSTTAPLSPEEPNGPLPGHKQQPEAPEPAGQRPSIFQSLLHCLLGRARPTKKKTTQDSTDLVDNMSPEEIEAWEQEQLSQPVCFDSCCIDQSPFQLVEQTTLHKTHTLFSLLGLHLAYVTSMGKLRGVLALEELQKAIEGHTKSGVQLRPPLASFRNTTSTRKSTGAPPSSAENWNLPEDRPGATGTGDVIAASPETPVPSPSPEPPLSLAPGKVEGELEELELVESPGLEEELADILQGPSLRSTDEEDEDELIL
Sequence of CLC-2 (P51788 whole entry): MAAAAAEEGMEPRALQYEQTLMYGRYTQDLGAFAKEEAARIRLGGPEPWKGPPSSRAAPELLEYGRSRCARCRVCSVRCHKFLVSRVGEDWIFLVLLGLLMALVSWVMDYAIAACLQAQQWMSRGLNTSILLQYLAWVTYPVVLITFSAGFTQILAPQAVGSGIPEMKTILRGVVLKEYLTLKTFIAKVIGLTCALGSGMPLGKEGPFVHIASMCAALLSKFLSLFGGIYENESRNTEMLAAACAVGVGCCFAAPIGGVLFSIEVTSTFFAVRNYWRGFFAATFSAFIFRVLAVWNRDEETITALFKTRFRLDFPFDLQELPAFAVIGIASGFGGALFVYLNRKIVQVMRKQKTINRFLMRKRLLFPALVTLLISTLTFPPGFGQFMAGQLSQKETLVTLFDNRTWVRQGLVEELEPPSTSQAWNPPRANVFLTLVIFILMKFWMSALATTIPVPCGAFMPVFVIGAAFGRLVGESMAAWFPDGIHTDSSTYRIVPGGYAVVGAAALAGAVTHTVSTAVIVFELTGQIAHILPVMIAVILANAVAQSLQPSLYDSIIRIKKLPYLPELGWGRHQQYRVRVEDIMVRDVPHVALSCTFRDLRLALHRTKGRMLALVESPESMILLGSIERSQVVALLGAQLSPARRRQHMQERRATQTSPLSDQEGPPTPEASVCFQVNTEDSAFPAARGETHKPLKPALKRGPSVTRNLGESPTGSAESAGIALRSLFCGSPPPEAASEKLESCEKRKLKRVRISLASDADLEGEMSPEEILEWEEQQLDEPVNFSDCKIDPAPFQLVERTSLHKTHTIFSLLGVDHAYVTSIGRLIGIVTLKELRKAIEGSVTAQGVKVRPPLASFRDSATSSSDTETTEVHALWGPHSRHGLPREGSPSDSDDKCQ
Sequence of Sigma 2 (Q5BJF2 whole entry): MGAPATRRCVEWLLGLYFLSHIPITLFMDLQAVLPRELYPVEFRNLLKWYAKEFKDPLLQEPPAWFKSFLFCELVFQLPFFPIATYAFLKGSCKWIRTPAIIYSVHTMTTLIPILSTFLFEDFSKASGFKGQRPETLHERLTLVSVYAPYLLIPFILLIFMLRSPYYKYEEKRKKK
Sequence of 5-HT2C (P28335 33-458, species assumed): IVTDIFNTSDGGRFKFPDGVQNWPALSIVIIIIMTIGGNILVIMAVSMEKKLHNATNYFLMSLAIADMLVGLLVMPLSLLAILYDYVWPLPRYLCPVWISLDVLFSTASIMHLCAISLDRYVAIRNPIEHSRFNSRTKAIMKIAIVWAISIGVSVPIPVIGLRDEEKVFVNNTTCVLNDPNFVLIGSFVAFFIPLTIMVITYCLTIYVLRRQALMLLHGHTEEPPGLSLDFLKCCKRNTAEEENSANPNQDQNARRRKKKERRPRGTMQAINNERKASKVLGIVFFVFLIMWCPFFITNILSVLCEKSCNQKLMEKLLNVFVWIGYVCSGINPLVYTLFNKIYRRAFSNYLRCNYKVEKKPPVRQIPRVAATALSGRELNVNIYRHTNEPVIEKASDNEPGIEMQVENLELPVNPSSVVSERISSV
Sequence of Alpha2C (P18825 whole entry): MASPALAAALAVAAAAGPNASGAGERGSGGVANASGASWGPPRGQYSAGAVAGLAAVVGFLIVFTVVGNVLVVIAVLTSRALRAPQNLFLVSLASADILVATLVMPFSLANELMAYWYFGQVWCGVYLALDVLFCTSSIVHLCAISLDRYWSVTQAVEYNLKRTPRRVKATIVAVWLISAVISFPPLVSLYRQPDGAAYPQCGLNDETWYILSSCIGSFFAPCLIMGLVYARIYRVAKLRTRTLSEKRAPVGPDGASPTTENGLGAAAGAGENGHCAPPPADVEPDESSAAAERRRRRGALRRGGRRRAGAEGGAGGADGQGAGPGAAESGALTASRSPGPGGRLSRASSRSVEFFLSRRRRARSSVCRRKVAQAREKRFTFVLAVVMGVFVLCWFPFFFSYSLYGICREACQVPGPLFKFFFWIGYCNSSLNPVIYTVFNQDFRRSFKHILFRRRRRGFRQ
Sequence of 5-HT3 (P46098 24-478, species assumed): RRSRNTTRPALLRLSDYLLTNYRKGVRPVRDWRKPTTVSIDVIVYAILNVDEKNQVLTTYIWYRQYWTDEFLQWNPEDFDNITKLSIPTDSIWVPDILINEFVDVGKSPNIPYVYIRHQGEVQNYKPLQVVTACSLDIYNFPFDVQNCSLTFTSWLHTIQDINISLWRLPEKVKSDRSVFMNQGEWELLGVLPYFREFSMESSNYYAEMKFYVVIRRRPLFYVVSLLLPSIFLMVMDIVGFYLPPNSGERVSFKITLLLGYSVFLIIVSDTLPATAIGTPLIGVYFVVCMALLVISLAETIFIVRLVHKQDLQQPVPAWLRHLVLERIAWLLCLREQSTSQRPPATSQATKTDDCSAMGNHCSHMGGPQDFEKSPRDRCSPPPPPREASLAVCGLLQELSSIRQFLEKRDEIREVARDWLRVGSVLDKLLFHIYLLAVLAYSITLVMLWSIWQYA
Sequence of NET (P23975 whole entry): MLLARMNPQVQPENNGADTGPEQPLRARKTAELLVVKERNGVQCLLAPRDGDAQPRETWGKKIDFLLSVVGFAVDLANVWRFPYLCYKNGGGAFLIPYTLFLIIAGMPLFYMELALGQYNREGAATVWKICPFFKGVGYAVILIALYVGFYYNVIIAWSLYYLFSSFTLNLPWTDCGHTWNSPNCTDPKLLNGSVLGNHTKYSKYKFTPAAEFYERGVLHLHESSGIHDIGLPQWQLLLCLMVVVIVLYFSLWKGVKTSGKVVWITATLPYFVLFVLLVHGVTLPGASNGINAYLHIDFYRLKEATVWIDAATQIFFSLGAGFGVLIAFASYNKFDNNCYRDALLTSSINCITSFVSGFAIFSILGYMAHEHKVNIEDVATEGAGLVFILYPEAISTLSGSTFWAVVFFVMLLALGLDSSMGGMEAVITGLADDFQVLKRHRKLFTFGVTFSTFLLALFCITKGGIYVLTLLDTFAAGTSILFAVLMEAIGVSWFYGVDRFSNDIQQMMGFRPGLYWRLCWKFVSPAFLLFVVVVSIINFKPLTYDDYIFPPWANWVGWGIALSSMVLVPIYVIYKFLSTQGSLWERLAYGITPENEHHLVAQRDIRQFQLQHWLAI
Sequence of H3 (Q9Y5N1 whole entry): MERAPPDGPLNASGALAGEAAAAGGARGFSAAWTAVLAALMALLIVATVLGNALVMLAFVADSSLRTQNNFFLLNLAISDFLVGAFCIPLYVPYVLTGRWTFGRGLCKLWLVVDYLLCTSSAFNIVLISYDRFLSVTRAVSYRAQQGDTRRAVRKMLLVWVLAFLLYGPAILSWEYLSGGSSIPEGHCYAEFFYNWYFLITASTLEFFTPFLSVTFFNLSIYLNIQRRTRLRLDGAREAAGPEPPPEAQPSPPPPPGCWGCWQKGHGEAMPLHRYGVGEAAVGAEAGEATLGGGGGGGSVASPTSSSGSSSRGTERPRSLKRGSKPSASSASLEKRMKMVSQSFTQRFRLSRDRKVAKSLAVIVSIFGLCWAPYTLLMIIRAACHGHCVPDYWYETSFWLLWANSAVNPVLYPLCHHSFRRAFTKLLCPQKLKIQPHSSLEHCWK
Sequence of 5-HT1B (P28222 whole entry, species assumed): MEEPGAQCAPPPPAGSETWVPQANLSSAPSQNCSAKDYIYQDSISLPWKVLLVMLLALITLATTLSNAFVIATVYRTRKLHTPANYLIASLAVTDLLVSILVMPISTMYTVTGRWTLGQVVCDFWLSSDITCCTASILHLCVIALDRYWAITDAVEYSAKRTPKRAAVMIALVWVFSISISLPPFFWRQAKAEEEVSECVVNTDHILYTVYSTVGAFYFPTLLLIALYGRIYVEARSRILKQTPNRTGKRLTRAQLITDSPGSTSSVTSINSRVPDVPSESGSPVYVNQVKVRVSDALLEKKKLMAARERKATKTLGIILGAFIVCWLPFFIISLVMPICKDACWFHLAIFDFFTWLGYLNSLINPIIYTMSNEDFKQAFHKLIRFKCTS

O=C(O)c1ccccc1Nc1c(Cl)ccc(OCc2ccccc2)c1Cl [AK3-99B]
Ki (mGluR1): > 10000 nM | IC50 (CLC-2; Table 2, read-out: IC50 (CLC-2)): 1.7 ± 0.2 µM | IC50 (CLC-2; [1]): 0.62 µM | IC50 (CLC-2; text and FIG. 3, Table 1 series, read-out: IC50 against CLC-2): ~0.6 µM and 0.6 µM | IC50 (CLC-1): > 30000 nM | percent inhibition of CLC-1 at highest concentration tested (in parenthesis) (CLC-1): 25% | % (10 μM) (5-HT3): −7.63% | % (10 μM) (H3): −5.97% | % (10 μM) (5-HT7): −29.75% | % (10 μM) (SERT): 4.65% | % (10 μM) (Alpha2C): 17.28% | % (10 μM) (KOR): 29.90% | % (10 μM) (Sigma 2): −9.10% | % (10 μM) (GABAA): −17.65% | % (10 μM) (D2): −6.96% | % (10 μM) (Alpha1D): 7.20% | % (10 μM) (DAT): −17.73% | % (10 μM) (D4): −0.19% | % (10 μM) (H4): 8.29% | % (10 μM) (Beta2): −8.08% | % (10 μM) (D1): 27.05% | % (10 μM) (Alpha1B): 4.33% | % (10 μM) (DOR): 16.22% | % (10 μM) (5-HT1D): 6.77% | % (10 μM) (D5): 27.29% | % (10 μM) (Alpha2B): 15.62% | % (10 μM) (BZP rat brain site): 40.75% | % (10 μM) (KA): 13.56% | % (10 μM) (5-HT2B): 14.38% | % (10 μM) (5-HT2C): −11.17% | % (10 μM) (Calcium channel): 12.22% | % (10 μM) (MOR): 9.03% | % (10 μM) (5-HT5A): −5.77% | % (10 μM) (5-HT1B): −0.25% | % (10 μM) (Alpha1A): 24.26% | % (10 μM) (PBR): 2.28% | % (10 μM) (NMDA): 39.29% | % (10 μM) (NET): 33.59% | % (10 μM) (NOP): 24.65% | % (10 μM) (5-HT2A): 19.70%

O=C(O)c1cccnc1Nc1c(Cl)ccc(OCc2ccccc2)c1Cl [AK3-238]
Ki (mGluR1): > 10000 nM | % inhibition at the concentration listed (in parenthesis) (CLC-2; CLC-2, at the concentration listed in the IC50 cell, negative = increase in peak current): (90%) | times greater potency towards CLC-2 compared to CLC-1 (CLC-2): approximately 10,000 times | times greater potency towards CLC-2 compared to CLC-1 (CLC-2; listed as FA44): 10,000 times | selectivity CLC-2 over CLC-1 (CLC-2; FIG. 8 panel A): selective for CLC-2 over CLC-1 | IC50 (CLC-2; Table 2 / FIG. 8, 16 concentrations, n=4-8, −120 mV, read-out: IC50 (CLC-2)): 0.017 ± 0.002 µM | IC50 (CLC-2; [1]): < 0.12 µM | IC50 (CLC-1): > 100000 nM | percent inhibition of CLC-1 at highest concentration tested (in parenthesis) (CLC-1): 22% | % (10 μM) (5-HT3): 28.75% | % (10 μM) (H3): −0.92% | % (10 μM) (5-HT7): 17.51% | % (10 μM) (SERT): 30.25% | % (10 μM) (Alpha2C): 3.41% | % (10 μM) (KOR): 4.11% | % (10 μM) (Sigma 2): −8.14% | % (10 μM) (GABAA): −4.29% | % (10 μM) (D2): 7.69% | % (10 μM) (Alpha1D): −10.12% | % (10 μM) (DAT): 9.23% | % (10 μM) (D4): −0.65% | % (10 μM) (H4): 2.23% | % (10 μM) (Beta2): 4.77% | % (10 μM) (D1): −9.96% | % (10 μM) (Alpha1B): 4.90% | % (10 μM) (DOR): 16.59% | % (10 μM) (5-HT1D): 44.06% | % (10 μM) (D5): 31.58% | % (10 μM) (Alpha2B): −28.62% | % (10 μM) (BZP rat brain site): 29.32% | % (10 μM) (KA): 36.60% | % (10 μM) (5-HT2B): 45.16% | % (10 μM) (5-HT2C): −13.39% | % (10 μM) (Calcium channel): 23.69% | % (10 μM) (MOR): −0.18% | % (10 μM) (5-HT5A): 28.19% | % (10 μM) (5-HT1B): 49.89% | % (10 μM) (Alpha1A): 12.29% | % (10 μM) (PBR): 8.22% | % (10 μM) (NMDA): 24.18% | % (10 μM) (NET): 17.36% | % (10 μM) (NOP): 21.14% | % (10 μM) (5-HT2A): 18.91%
